The results in this text go back to patent US11535611B2, “Pyrazolo[3,4-B]pyridines and imidazo[1,5-B]pyridazines as PDE1 inhibitors” (H. Lundbeck A/S, priority 2017, dated 2022).

Holding throughout (assay type): biochemical
For one experiment, the target named is PDE1A (Homo sapiens (Human), UniProt P54750). Briefly: PDE1 inhibition assay, PDE1A. As to conditions: for IC50: 15 nM tritium labelled cAMP, 1 hr at room temperature, SPA beads; for inhibition at 10 µM: @ 10 μM compound; for inhibition at 1 µM: @ 1 μM compound. The procedure: (§1) PDE1A, PDE1B and PDE1C assays were performed as follows: the assays were performed in 60 μL samples containing a fixed amount of the PDE1 enzyme (sufficient to convert 20-25% of the cyclic nucleotide substrate), a buffer (50 mM HEPES (4-(2-hydroxyethyl)-1-piperazineethanesulfonic acid) pH 7.6; 10 mM MgCl2; 0.02% Tween20), 0.1 mg/ml BSA (bovine serum albumin), 15 nM tritium labelled cAMP and varying amounts of inhibitors. Reactions were initiated by addition of the cyclic nucleotide substrate, and reactions were allowed to proceed for 1 hr at room temperature before being terminated through mixing with 20 μL (0.2 mg) yttrium silicate SPA beads (PerkinElmer). The beads were allowed to settle for 1 hour in the dark before the plates were counted in a Wallac 1450 Microbeta counter. The measured signals were converted to activity relative to an uninhibited control (100%) and IC50 values were calculated using XIFit (model 205, IDBS).

In another experiment the target is PDE1B (Homo sapiens (Human), UniProt Q01064). Briefly: PDE1 inhibition assay, PDE1B. As to conditions: for IC50: 15 nM tritium labelled cAMP, 1 hr at room temperature, SPA beads, read-out: PDE1 B, IC50. As to the method: as §1
Another experiment has as its target PDE1C (Homo sapiens (Human), UniProt Q14123). The experiment in a line: PDE1 inhibition assay, PDE1C. As to conditions: for IC50: 15 nM tritium labelled cAMP, 1 hr at room temperature, SPA beads, read-out: PDE1 C, IC50; for inhibition at 1 µM: @ 1 μM compound, read-out: PDE1 C, % inhibition @ 1 μM; for inhibition at 10 µM: @ 10 μM compound, read-out: PDE1 C, % inhibition @ 10 μM. As to the method: as §1

Each structure is given as a SMILES string.

Sequence of PDE1C (Q14123 whole entry): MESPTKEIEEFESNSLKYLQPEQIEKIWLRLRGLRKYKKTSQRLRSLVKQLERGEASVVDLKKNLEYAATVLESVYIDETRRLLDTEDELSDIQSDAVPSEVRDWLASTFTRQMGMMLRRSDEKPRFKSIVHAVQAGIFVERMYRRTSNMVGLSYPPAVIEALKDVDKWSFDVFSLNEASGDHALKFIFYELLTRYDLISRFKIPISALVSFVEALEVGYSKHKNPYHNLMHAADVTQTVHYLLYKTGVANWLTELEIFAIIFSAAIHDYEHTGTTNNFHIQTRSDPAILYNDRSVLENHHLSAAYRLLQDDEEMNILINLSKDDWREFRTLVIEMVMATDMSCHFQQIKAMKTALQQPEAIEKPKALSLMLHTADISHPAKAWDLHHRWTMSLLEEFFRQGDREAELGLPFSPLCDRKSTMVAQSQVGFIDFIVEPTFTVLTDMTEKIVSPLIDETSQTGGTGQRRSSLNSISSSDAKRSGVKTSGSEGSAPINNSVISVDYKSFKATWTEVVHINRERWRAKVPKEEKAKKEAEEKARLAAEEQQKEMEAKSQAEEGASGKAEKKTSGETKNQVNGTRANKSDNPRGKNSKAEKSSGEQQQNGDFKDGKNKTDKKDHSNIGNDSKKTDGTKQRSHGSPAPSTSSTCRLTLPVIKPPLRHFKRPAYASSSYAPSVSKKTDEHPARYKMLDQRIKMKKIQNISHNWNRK
Sequence of PDE1B (Q01064 whole entry): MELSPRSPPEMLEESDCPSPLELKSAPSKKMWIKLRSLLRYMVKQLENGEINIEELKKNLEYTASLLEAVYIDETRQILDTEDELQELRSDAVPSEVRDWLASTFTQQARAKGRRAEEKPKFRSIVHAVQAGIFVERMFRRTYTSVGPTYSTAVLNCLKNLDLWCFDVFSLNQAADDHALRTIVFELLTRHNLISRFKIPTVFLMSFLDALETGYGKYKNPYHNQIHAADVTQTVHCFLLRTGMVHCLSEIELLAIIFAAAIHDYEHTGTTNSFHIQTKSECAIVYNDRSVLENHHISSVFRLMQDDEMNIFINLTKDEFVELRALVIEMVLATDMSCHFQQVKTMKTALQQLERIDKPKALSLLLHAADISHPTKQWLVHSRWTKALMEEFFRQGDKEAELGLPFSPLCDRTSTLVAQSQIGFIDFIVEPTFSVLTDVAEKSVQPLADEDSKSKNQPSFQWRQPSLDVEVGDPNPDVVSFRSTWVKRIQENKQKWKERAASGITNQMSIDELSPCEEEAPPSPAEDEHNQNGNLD
Sequence of PDE1A (P54750 whole entry): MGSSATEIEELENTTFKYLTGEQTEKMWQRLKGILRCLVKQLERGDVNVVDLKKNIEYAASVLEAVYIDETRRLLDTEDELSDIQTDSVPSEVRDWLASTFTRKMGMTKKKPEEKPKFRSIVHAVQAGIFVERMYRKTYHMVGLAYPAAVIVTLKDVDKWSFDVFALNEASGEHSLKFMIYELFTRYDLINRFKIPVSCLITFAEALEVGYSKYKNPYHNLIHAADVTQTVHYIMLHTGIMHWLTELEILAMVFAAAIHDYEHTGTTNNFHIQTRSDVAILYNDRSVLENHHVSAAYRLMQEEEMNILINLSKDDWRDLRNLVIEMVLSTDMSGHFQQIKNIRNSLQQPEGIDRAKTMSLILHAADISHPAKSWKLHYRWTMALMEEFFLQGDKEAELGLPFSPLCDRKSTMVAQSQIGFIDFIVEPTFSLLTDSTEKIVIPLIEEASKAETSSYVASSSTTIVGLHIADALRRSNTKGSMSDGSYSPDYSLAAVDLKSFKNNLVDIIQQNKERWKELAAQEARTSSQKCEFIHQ

In the case of `CCOc1ncccc1-c1cc(N[C@@H]2COC[C@H]2OC)c2c(cnn2C(C)C)n1` (relative stereo) [Example 11, 5-(2-ethoxy-3-pyridyl)-1-isopropyl-N-[trans-4-methoxytetrahydrofuran-3-yl]pyrazolo[4,3-b]pyridin-7-amine], the IC50 (as a rule, the concentration that inhibits the measured activity by half) against PDE1A turned out to be 575 nM; at PDE1B, 82 nM; on PDE1C, 1480 nM.

Regarding `COc1ncc(C#N)cc1-c1cc(N[C@@H]2CCOC2)c2c(cnn2C(C)C)n1` [Example 54, 5-[1-isopropyl-7-[[(3R)-tetrahydrofuran-3-yl]amino]pyrazolo[4,3-b]pyridin-5-yl]-6-methoxy-pyridine-3-carbonitrile], the inhibition (usually the percentage by which the read-out fell short of the control) at 10 µM on PDE1A stood at 59%. The IC50 on PDE1B was 1530 nM; at PDE1C, 2400 nM.

`CCOc1ncccc1-c1cc(NC2CCC(OC)C2)c2c(cnn2C)n1` (centres unmarked) [Example 88, 5-(2-ethoxy-3-pyridyl)-N-(3-methoxycyclopentyl)-1-methyl-pyrazolo[4,3-b]pyridin-7-amine]: the values for the inhibition at 1 µM on PDE1A and at PDE1C were 16% and 47%, respectively. At PDE1B, the IC50 worked out at 311 nM.

At PDE1A, `COc1cnc(C)c(-c2cc(N[C@@H]3CCOC3)c3c(cnn3C(C)C)n2)c1` [Example 51, 1-isopropyl-5-(5-methoxy-2-methyl-3-pyridyl)-N-[(3R)-tetrahydrofuran-3-yl]pyrazolo[4,3-b]pyridin-7-amine] registered an inhibition at 10 µM of 20%. Moreover, the IC50 came to 3250 nM on PDE1B and 3850 nM on PDE1C.

For the molecule `CCOc1ncccc1-c1cc(N[C@H]2CCOC2)c2c(cnn2C(C)C)n1` (single isomer, unassigned) [Example 22, 5-(2-ethoxy-3-pyridyl)-1-isopropyl-N-[tetrahydrofuran-3-yl]pyrazolo[4,3-b]pyridin-7-amine], the IC50 at PDE1B was found to be 32 nM.

For the molecule `CCOc1ncccc1-c1ccn2c(C3(C)COC3)nc(C)c2n1` [Example 77, 2-(2-ethoxy-3-pyridyl)-8-methyl-6-(3-methyloxetan-3-yl)imidazo[1,5-a]pyrimidine], the IC50 against PDE1A turned out to be 448 nM; at PDE1B it was 239 nM; on PDE1C it was 730 nM.

For `CCOc1ncccc1-c1ccn2c([C@H](C)CC)nc(C)c2n1` (single isomer, unassigned) [Example 84, 2-(2-ethoxy-3-pyridyl)-8-methyl-6-[1-methylpropyl]imidazo[1,5-a]pyrimidine], the IC50 against PDE1A amounted to 159 nM; at PDE1B, 33 nM; on PDE1C it was 323 nM.

Take `CCOc1ncccc1-c1ccn2c(C(C)(C)C)nc(C)c2n1` [Example 82, 6-tert-butyl-2-(2-ethoxy-3-pyridyl)-8-methyl-imidazo[1,5-a]pyrimidine]: the inhibition at 10 µM on PDE1A stood at 29%; on PDE1B (@ 10 μM compound, read-out: PDE1 B, % inhibition @ 10 μM), 54%; on PDE1C it was 28%.

For the molecule `CCOc1ncccc1-c1ccc2c(cnn2C(C)C)n1` [Example 70, 5-(2-ethoxy-3-pyridyl)-1-isopropyl-pyrazolo[4,3-b]pyridine], the IC50 on PDE1A was 836 nM; on PDE1B, 99 nM; on PDE1C, 2170 nM.

Turning to `CCOc1ncccc1-c1ccn2c(C(C)C)nc(C)c2n1` [Example 72, 2-(2-ethoxy-3-pyridyl)-6-isopropyl-8-methyl-imidazo[1,5-a]pyrimidine], the IC50 at PDE1A came to 96 nM; on PDE1B it was 34 nM; at PDE1C, 213 nM.

Regarding `CCOc1ncccc1-c1cc(N2CCCC2)c2c(cnn2C(C)C)n1` [Example 17, 5-(2-ethoxy-3-pyridyl)-1-isopropyl-7-pyrrolidin-1-yl-pyrazolo[4,3-b]pyridine], the IC50 on PDE1A stood at 353 nM; at PDE1B, 83 nM. Moreover, the inhibition at 1 µM on PDE1C amounted to 50%.

On to `CC(C)n1ncc2nc(-c3cnn4ccccc34)cc(N[C@@H]3CCOC3)c21` [Example 35, 1-isopropyl-5-pyrazolo[1,5-a]pyridin-3-yl-N-[(3R)-tetrahydrofuran-3-yl]pyrazolo[4,3-b]pyridin-7-amine], for which the IC50 at PDE1A is 1620 nM; on PDE1B, 604 nM; at PDE1C it was 2140 nM.

Regarding `CCOc1ncccc1-c1cc(N[C@H]2CCOC2)c2c(cnn2C(C)C)n1` (single isomer, unassigned) [Example 21, 5-(2-ethoxy-3-pyridyl)-1-isopropyl-N-[tetrahydrofuran-3-yl]pyrazolo[4,3-b]pyridin-7-amine], the IC50 on PDE1B was 48 nM.

In the case of `CCOc1ncccc1-c1cc(N2CCCC2)c2c(cnn2CC)n1` [Example 16, 5-(2-ethoxy-3-pyridyl)-1-ethyl-7-pyrrolidin-1-yl-pyrazolo[4,3-b]pyridine], the IC50 amounted to 461 nM against PDE1A, 129 nM on PDE1B and 1820 nM on PDE1C.

In the case of `CCCn1ncc2nc(-c3cccnc3OCC)cc(N3CCCC3)c21` [Example 18, 5-(2-ethoxy-3-pyridyl)-1-propyl-7-pyrrolidin-1-yl-pyrazolo[4,3-b]pyridine], the IC50 against PDE1A was 637 nM; on PDE1B it was 336 nM. Also, at PDE1C, the inhibition at 10 µM stood at 64%.

In the case of `CCOc1ncccc1-c1cc(N2CCCC2)c2c(cnn2C2CCOC2)n1` (racemic) [Example 3, (±)-5-(2-ethoxy-3-pyridyl)-7-pyrrolidin-1-yl-1-tetrahydrofuran-3-yl-pyrazolo[4,3-b]pyridine], the inhibition at 1 µM is 27% at PDE1A and 29% at PDE1C. Also, the IC50 at PDE1B was 550 nM.

Consider `COc1ncncc1-c1cc(N[C@@H]2CCOC2)c2c(cnn2C(C)C)n1` [Example 49, 1-isopropyl-5-(4-methoxypyrimidin-5-yl)-N-[(3R)-tetrahydrofuran-3-yl]pyrazolo[4,3-b]pyridin-7-amine], for which, at PDE1A, testing at 10 µM gave an inhibition of 43%. The IC50 on PDE1B is 2670 nM; at PDE1C it was 1870 nM.

In the case of `CC(C)n1ncc2nc(-c3cccc4c3OCCO4)cc(N[C@@H]3CCOC3)c21` [Example 42, 5-(2,3-dihydro-1,4-benzodioxin-5-yl)-1-isopropyl-N-[(3R)-tetrahydrofuran-3-yl]pyrazolo[4,3-b]pyridin-7-amine], the IC50 came out at 1570 nM against PDE1A and 546 nM on PDE1B. Further, the inhibition at 10 µM at PDE1C was determined as 68%.

With `CC(C)n1ncc2nc(-c3ccccc3)cc(N[C@@H]3CCOC3)c21` [Example 27, 1-isopropyl-5-phenyl-N-[(3R)-tetrahydrofuran-3-yl]pyrazolo[4,3-b]pyridin-7-amine], the figures for the IC50 against PDE1A, at PDE1B and on PDE1C were 2000 nM, 690 nM and 3550 nM, respectively.

`COc1ccc(Cc2cc(N[C@@H]3CCOC3)c3c(cnn3C(C)C)n2)cc1` [Example 57, 1-isopropyl-5-[(4-methoxyphenyl)methyl]-N-[(3R)-tetrahydrofuran-3-yl]pyrazolo[4,3-b]pyridin-7-amine]: the IC50 against PDE1A was 874 nM; on PDE1B, 303 nM; at PDE1C, 506 nM.

On to `CC(C)n1ncc2nc(Cc3ccc(F)cc3)cc(N[C@@H]3CCOC3)c21` [Example 43, 5-[(4-fluorophenyl)methyl]-1-isopropyl-N-[(3R)-tetrahydrofuran-3-yl]pyrazolo[4,3-b]pyridin-7-amine], for which the IC50 on PDE1A was found to be 2860 nM; on PDE1B, 1220 nM; on PDE1C it was 621 nM.

Turning to `CCOc1ncccc1-c1ccn2c(C(C)CC)nc(C)c2n1` (racemic) [Example 76, (±)-2-(2-ethoxy-3-pyridyl)-8-methyl-6-sec-butyl-imidazo[1,5-a]pyrimidine], the figures for the IC50 against PDE1A, on PDE1B and at PDE1C were 61 nM, 9 nM and 112 nM, respectively.

Regarding `COCc1ncccc1-c1cc(N[C@@H]2CCOC2)c2c(cnn2C(C)C)n1` [Example 58, 1-isopropyl-5-[2-(methoxymethyl)-3-pyridyl]-N-[(3R)-tetrahydrofuran-3-yl]pyrazolo[4,3-b]pyridin-7-amine], the values for the inhibition at 10 µM at PDE1A and on PDE1C were 52% and 31%, respectively. At PDE1B, the IC50 is 2190 nM.

Regarding `CCOc1ncccc1-c1cc(NC2CCOC2)c2c(cnn2C2COC2)n1` (racemic) [Example 5, (±)-5-(2-ethoxy-3-pyridyl)-1-(oxetan-3-yl)-N-tetrahydrofuran-3-yl-pyrazolo[4,3-b]pyridin-7-amine], the results for the inhibition at 1 µM against PDE1A and at PDE1C were 47% and 20%, respectively. Moreover, the IC50 at PDE1B was found to be 447 nM.

As for `CCOc1ncccc1-c1cc(NC[C@H]2CCCO2)c2c(cnn2C(C)C)n1` [Example 7, 5-(2-ethoxy-3-pyridyl)-1-isopropyl-N-[[(2R)-tetrahydrofuran-2-yl]methyl]pyrazolo[4,3-b]pyridin-7-amine], the IC50 against PDE1A was 449 nM; at PDE1B, 83 nM; on PDE1C, 1710 nM.

As for `CCc1ncccc1-c1cc(N[C@@H]2CCOC2)c2c(cnn2C(C)C)n1` [Example 56, 5-(2-ethyl-3-pyridyl)-1-isopropyl-N-[(3R)-tetrahydrofuran-3-yl]pyrazolo[4,3-b]pyridin-7-amine], the values for the inhibition at 10 µM against PDE1A and at PDE1C were 51% and 59%, respectively. Further, on PDE1B, the IC50 was 1520 nM.
